Measurements reported in ChEMBL document CHEMBL4385648 (Bioorg Med Chem, 2019).

Tests used:
Neuraminidase = Neuraminidase (Influenza A virus, UniProt B4URF0); experiment: Inhibition of Influenza A virus (A/Anhui/1/2013 (H7N9) neuraminidase expressed by HEK293 cells incubated for 1 hr using 4-MU-NANA substrate by spectrofluorometric assay; type: cell-based
[1] = Inhibition of Influenza A virus (A/Babol/36/2005 (H3N2) neuraminidase expressed by HEK293 cells incubated for 1 hr using 4-MU-NANA substrate by spectrofluorometric assay; type: cell-based

With `CCCC(=O)c1c(O)c(C=O)c(O)c(Cc2c(O)c(C=O)c(O)c(C(=O)CCC)c2O)c1O` the IC50 (Neuraminidase; read-out: IC50) was 2.5 µM and the IC50 ([1]; read-out: IC50) was 9.8 µM.
For `CCCC(=O)c1c(O)cc(O)c(CC2=C(O)C(C)(C)C(O)=C(C(C)=O)C2=O)c1O`, the IC50 (Neuraminidase; read-out: IC50) was 1.6 µM and the IC50 ([1]; read-out: IC50) was 5.6 µM.
In the case of `CCCC(=O)c1c(O)c(CC2=C(O)C(C)(C)C(O)=C(C(C)=O)C2=O)c(O)c(Cc2c(O)c(CC3=C(O)C(C)(C)C(O)=C(C(C)=O)C3=O)c(O)c(C(=O)CCC)c2O)c1O`, the IC50 (Neuraminidase; read-out: IC50) is reported as 3.6 µM and the IC50 ([1]; read-out: IC50) is reported as 36.1 µM.
In the case of `CC(=O)C1=C(O)C(C)(C)C(O)=C(CC2=C(O)C(C)(C)C(O)=C(C(C)=O)C2=O)C1=O`, the IC50 (Neuraminidase; hek293) is reported as “Not Active” and the IC50 [1] is reported as “Not Active”.
`CCOC(=O)C1=C[C@@H](OC(CC)CC)[C@H](NC(C)=O)[C@@H](N)C1` [OSELTAMIVIR] showed an IC50 ([1]; read-out: IC50) of 0.1 µM.
